ChEMBL document CHEMBL3616422, “A novel family of diarylpyrimidines (DAPYs) featuring a diatomic linker: Design, synthesis and anti-HIV activities” (Bioorg Med Chem, 2015)

Columns and labels:
[1] = system: Human immunodeficiency virus 2; assay: Antiviral activity against wild type HIV 2 ROD infected in human MT4 cells assessed as protection against virus-induced cytopathogenicity after 5 days by MTT assay; type: functional, organism-based; conditions: Human immunodeficiency virus 2, ISOLATE ROD, MT4, 120 h
[2] = Selectivity index, ratio of CC50 for uninfected human MT4 cells to EC50 for wild type HIV 1 3B infected in human MT4 cells; type: toxicity, cell-based; conditions: uninfected and infected with wild type HIV-1 3B, read-out: Ratio CC50/EC50
[3] = system: Human immunodeficiency virus 1; assay: Antiviral activity against wild type HIV 1 3B infected in human MT4 cells assessed as protection against virus-induced cytopathogenicity after 5 days by MTT assay; type: functional, organism-based; conditions: Human immunodeficiency virus 1, 3B, MT4, 120 h
[4] = system: Human immunodeficiency virus 1; assay: Antiviral activity against HIV 1 RES056 harboring reverse transcriptase K103N/Y181C double mutant infected in human MT4 cells assessed as protection against virus-induced cytopathogenicity after 5 days by MTT assay; type: functional, organism-based; conditions: Human immunodeficiency virus 1, RES056, MT4, 120 h
[5] = Cytotoxicity against uninfected human MT4 cells assessed as decrease in cell viability after 5 days by MTT assay; type: cell-based
[6] = molecular target: Human immunodeficiency virus type 1 reverse transcriptase (Human immunodeficiency virus 1, UniProt Q72547); assay: Inhibition of recombinant HIV1 Reverse transcriptase p66/p51 using poly (rA)-oligo (dT) as template primer after 40 mins by spectrofluorometric analysis

Row | SMILES | EC50 [1] [µg/mL] | selectivity ratio [2] | EC50 [3] [nM] | EC50 [4] [µg/mL] | CC50 at 120 h [5] [nM] | IC50 [6] [nM]
1 | N#Cc1ccc(Nc2nccc(NCc3ccccc3)n2)cc1 | > 0.48 | 294 | 5.3 | > 0.48 | 1590 | 20
2 | N#Cc1ccc(Nc2nccc(NCc3ccccc3Cl)n2)cc1 | > 92.3 | 18600 | 14.9 | > 92.3 | 275000 | 24
3 | N#Cc1ccc(Nc2nccc(NCc3cccc(Cl)c3)n2)cc1 | > 0.7 | 175 | 11.9 | > 0.7 | 2080 | 18
4 | N#Cc1ccc(Nc2nccc(NCc3ccc(Cl)cc3)n2)cc1 | > 1.1 | 71 | 47.6 | > 1.1 | 3280 | 48
5 | N#Cc1ccc(Nc2nccc(NCc3ccccc3Br)n2)cc1 | > 74.1 | 4680 | 42.1 | > 74.1 | 195000 | 71
6 | N#Cc1ccc(Nc2nccc(NCc3cccc(Br)c3)n2)cc1 | > 0.67 | 86 | 20.3 | > 0.67 | 1760 | 24
7 | N#Cc1ccc(Nc2nccc(NCc3ccc(Br)cc3)n2)cc1 | > 1.28 | 85 | 39.4 | > 1.28 | 3370 | 29
8 | N#Cc1ccc(Nc2nccc(NCc3ccccc3F)n2)cc1 | > 0.88 | 1080 | 2.6 | > 0.88 | 2760 | 16
9 | N#Cc1ccc(Nc2nccc(NCc3cccc(F)c3)n2)cc1 | > 0.45 | 333 | 4.4 | > 0.45 | 1410 | 16
10 | N#Cc1ccc(Nc2nccc(NCc3ccc(F)cc3)n2)cc1 | > 0.55 | 23 | 72 | > 0.55 | 1720 | 382
11 | Cc1ccc(CNc2ccnc(Nc3ccc(C#N)cc3)n2)cc1 | > 0.79 | 297 | 8.2 | > 0.79 | 2500 | 13
12 | COc1ccccc1CNc1ccnc(Nc2ccc(C#N)cc2)n1 | > 27.3 | 937 | 87.5 | > 27.3 | 82400 | 936
13 | COc1cccc(CNc2ccnc(Nc3ccc(C#N)cc3)n2)c1 | > 0.79 | 518 | 4.5 | > 0.79 | 2380 | 18
14 | COc1ccc(CNc2ccnc(Nc3ccc(C#N)cc3)n2)cc1 | > 0.78 | 60 | 39.3 | > 0.78 | 2350 | 85
15 | N#Cc1ccc(Nc2nccc(NCc3ccccc3C(F)(F)F)n2)cc1 | > 41.6 | 107 | 1060 | > 41.6 | 113000 | 1540
16 | N#Cc1ccc(Nc2nccc(NCc3cccc(C(F)(F)F)c3)n2)cc1 | > 0.71 | 9 | 206 | > 0.71 | 1920 | 122
17 | N#Cc1ccc(Nc2nccc(NCc3ccc(C(F)(F)F)cc3)n2)cc1 | > 1.11 | 24 | 127 | > 1.11 | 3010 | 70
18 | Cc1ccc(CNc2ccnc(Nc3ccc(C#N)cc3)n2)cc1C | > 1.21 | 1190 | 3 | > 1.21 | 3670 | 9
19 | N#Cc1ccc(Nc2nccc(NCc3ccc(F)cc3F)n2)cc1 | > 1.41 | 245 | 16.9 | > 1.41 | 4180 | 56
20 | O=C1Nc2ccc(Cl)cc2[C@@](C#CC2CC2)(C(F)(F)F)O1 [EFAVIRENZ] |  |  | 6.3 |  | > 6340 | 
21 | Cc1cc(C#N)cc(C)c1Oc1nc(Nc2ccc(C#N)cc2)nc(N)c1Br [ETRAVIRINE] |  |  |  |  | > 4590 | 
22 | Cc1ccnc2c1NC(=O)c1cccnc1N2C1CC1 [NEVIRAPINE] |  |  |  | ≥ 2.02 | > 15000 | 
